Results reported in the supplement of paper PMC8960247.
Structures can show the parent of a compound that is named as a salt. ± gives the standard error.

What was measured:
[1] = system: UMB1949 (TSC2-deficient); experiment: relative viability vs DMSO (fraction); higher = less cytotoxic; details: serum: 0.1% FBS, 72 h;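 further: renal angiomyolipoma cell lines screened in 384-well plates, viability normalized per plate to DMSO-treated cells, each plate carrying 50 nM rapamycin and 1 µM staurosporine controls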
[2] = system: 621-102 (TSC2-deficient); experiment: as above; details: serum: 0.1% FBS, 72 h
[3] = system: 621-103 (TSC2-rescued); experiment: relative viability vs DMSO; higher = less cytotoxic; details: serum: 10% FBS, 72 h
[4] = system: 621-102 (TSC2-deficient); experiment: as above; details: serum: 10% FBS, 72 h

| Compound | relative viability ([1]; 0.0128 nM) | relative viability ([1]; 0.064 nM) | relative viability ([1]; 0.32 nM) | relative viability ([1]; 1.6 nM) | relative viability ([1]; 8 nM) | relative viability ([1]; 40 nM) | relative viability ([1]; 200 nM) | relative viability ([1]; 1000 nM) | relative viability ([1]; 5000 nM) | relative viability ([2]; 0.0128 nM) | relative viability ([2]; 0.064 nM) | relative viability ([2]; 0.32 nM) | relative viability ([2]; 1.6 nM) | relative viability ([2]; 8 nM) | relative viability ([2]; 40 nM) | relative viability ([2]; 200 nM) | relative viability ([2]; 1000 nM) | relative viability ([2]; 5000 nM) | relative viability ([3]; 0.0001 µM) [%] | relative viability ([3]; 0.001 µM) [%] | relative viability ([3]; 0.01 µM) [%] | relative viability ([3]; 0.1 µM) [%] | relative viability ([3]; 1 µM) [%] | relative viability ([3]; 10 µM) [%] | relative viability ([4]; 0.0001 µM) [%] | relative viability ([4]; 0.001 µM) [%] | relative viability ([4]; 0.01 µM) [%] | relative viability ([4]; 0.1 µM) [%] | relative viability ([4]; 1 µM) [%] | relative viability ([4]; 10 µM) [%] |
| --- | --- | --- | --- | --- | --- | --- | --- | --- | --- | --- | --- | --- | --- | --- | --- | --- | --- | --- | --- | --- | --- | --- | --- | --- | --- | --- | --- | --- | --- | --- |
| CC(C)C[C@H](NC(=O)CNC(=O)c1cc(Cl)ccc1Cl)B1OC(=O)C(CC(=O)O)(CC(=O)O)O1 [MLN9708] | 1.05 | 1.02 | 1.01 | 1.02 | 1 | 0.0169 | 0.00139 | 0.00101 | 0.000797 | 1.35 | 1.13 | 1.2 | 1.17 | 1 | 0.392 | 0.0117 | 0.00236 | 0.000667 | 99.131 ± 0.04 | 98.8 ± 0.59 | 102 ± 2.2 | 4.63 ± 0.36 | 1.63 ± 0.029 | 0.886 ± 0.074 | 103 ± 2.1 | 104 ± 2.3 | 107 ± 4.3 | 21.9 ± 4.2 | 3.28 ± 0.3 | 2.38 ± 0.081 |
| O=c1cc(N2CCOCC2)oc2c(-c3cccc4c3sc3ccccc34)cccc12 [NU7441] | 1.06 | 0.893 | 1.08 | 0.961 | 0.89 | 0.85 | 0.236 | 0.00964 | 0.00523 | 1.29 | 0.918 | 0.935 | 0.718 | 0.623 | 0.724 | 0.674 | 0.227 | 0.00895 | 105 ± 2.5 | 109 ± 1.9 | 111 ± 1.2 | 102.6 ± 0.65 | 101 ± 2.8 | 56.7 ± 1.8 | 61.9 ± 2.2 | 57.3 ± 5.1 | 78.8 ± 9.5 | 78.5 ± 3 | 88.7 ± 5.2 | 41.2 ± 0.43 |
| Nc1ncnc2c1c(-c1cccc(OCc3ccccc3)c1)cn2C1CC(CN2CCCC2)C1 (stereo not given) [NVP-ADW742] | 1.02 | 1.04 | 1.13 | 1.14 | 1.07 | 1.09 | 0.995 | 0.273 | 0.0444 | 1.03 | 1.02 | 1.03 | 1.04 | 1.05 | 0.948 | 0.817 | 0.724 | 0.0714 | 98.4 ± 1 | 96 ± 1.5 | 94.3 ± 2.1 | 96.7 ± 2.4 | 92.3 ± 6 | 59.3 ± 0.83 | 74.8 ± 0.9 | 61.6 ± 3.1 | 69.9 ± 9.3 | 66.3 ± 5.1 | 77.3 ± 6 | 70.1 ± 4.5 |
| Cc1ccc(C(=O)Nc2cccc(C(F)(F)F)c2)cc1Nc1nc(-c2cccnc2)nc2c1cnn2C [NVP-BHG712] | 1.21 | 1.1 | 1.09 | 1.12 | 1.12 | 1.14 | 0.95 | 0.301 | 0.0076 | 1.3 | 1.15 | 1.19 | 1.1 | 1.24 | 1.37 | 0.67 | 0.135 | 0.011 | 105 ± 1.7 | 104.74 ± 0.059 | 102 ± 1.1 | 95.4 ± 2.5 | 78.2 ± 1.3 | 17.4 ± 1.2 | 108 ± 1.1 | 108 ± 0.36 | 107 ± 2.5 | 102 ± 2.6 | 99.4 ± 2 | 33.9 ± 4 |
| COC1=CC(c2cc3ccccc3[nH]2)=N/C1=C\c1[nH]c(C)cc1C [Obatoclax Mesylate] | 1.1 | 1.01 | 1.06 | 1.08 | 1 | 0.616 | 0.0115 | 0.00837 | 0.0101 | 1.24 | 0.96 | 1.05 | 1.17 | 1.06 | 0.847 | 0.128 | 0.00422 | 0.00238 | 102.9 ± 0.9 | 99.7 ± 1.6 | 96.8 ± 0.97 | 68.9 ± 2 | 28.8 ± 0.29 | 5.57 ± 0.73 | 116.6 ± 0.46 | 115 ± 5.2 | 101.8 ± 0.93 | 54 ± 2.3 | 16.9 ± 0.25 | 5.18 ± 0.8 |
| Nc1nc2[nH]cc(CCc3ccc(C(=O)N[C@@H](CCC(=O)O)C(=O)O)cc3)c2c(=O)[nH]1 [Pemetrexed disodium] | 1.05 | 0.979 | 1.03 | 0.984 | 1.02 | 0.0167 | 0.00471 | 0.00243 | 0.000722 | 1.25 | 1.15 | 1.17 | 1.17 | 1.09 | 0.126 | 0.0307 | 0.0251 | 0.0247 | 102 ± 2.4 | 92.3 ± 6.5 | 102 ± 1.6 | 106 ± 1.4 | 104.4 ± 0.47 | 88.6 ± 7.4 | 107 ± 2.3 | 101 ± 4.2 | 107 ± 5.4 | 93.8 ± 4.3 | 94.1 ± 6.1 | 81.27 ± 0.71 |
| Nc1cccc2c1C(=O)N(C1CCC(=O)NC1=O)C2=O (stereo not given) [Pomalidomide] | 1.06 | 0.959 | 1.04 | 1.03 | 1.18 | 1.04 | 1.07 | 0.943 | 0.912 | 1.18 | 0.947 | 1.03 | 0.975 | 0.951 | 1.02 | 0.939 | 0.985 | 0.951 | 104.77 ± 0.07 | 102.3 ± 0.72 | 101.3 ± 0.69 | 96.9 ± 1.3 | 98.59 ± 0.92 | 100.7 ± 0.95 | 107 ± 1.1 | 112 ± 1.7 | 108 ± 3.3 | 116 ± 1.5 | 118 ± 2.1 | 118 ± 4 |
| Cn1c(Nc2ccc(C(F)(F)F)cc2)nc2cc(Oc3ccnc(-c4ncc(C(F)(F)F)[nH]4)c3)ccc21 [RAF265] | 1.1 | 1.02 | 1.13 | 1.06 | 1.19 | 1.11 | 0.216 | 0.00279 | 0.00183 | 1.01 | 1.13 | 1.04 | 1.07 | 0.927 | 0.488 | 0.0802 | 0.0481 | 0.00102 | 99.71 ± 0.95 | 102 ± 2.3 | 100.7 ± 0.72 | 92.7 ± 2.6 | 78.2 ± 2.2 | 64.1 ± 0.7 | 111 ± 3.9 | 107 ± 4.3 | 101 ± 2.5 | 92.9 ± 1.1 | 60.4 ± 1.5 | 41.5 ± 2 |
| CCCCc1nc2cc(/C=C/C(=O)NO)ccc2n1CCN(CC)CC [SB939] | 1.04 | 1.11 | 1.25 | 1.22 | 1.03 | 0.31 | 0.0114 | 0.00881 | 0.00358 | 1.27 | 0.957 | 0.868 | 0.884 | 0.789 | 0.608 | 0.351 | 0.121 | 0.00937 | 98.4 ± 1.2 | 97.63 ± 0.65 | 96.6 ± 2.1 | 96.7 ± 1.1 | 46.1 ± 2.5 | 2.74 ± 0.067 | 106 ± 2.5 | 116 ± 4.8 | 108.59 ± 0.1 | 96.3 ± 2 | 71.42 ± 0.65 | 35.9 ± 0.61 |
| Cn1cc(-c2ccc3nnc(Sc4ccc5ncccc5c4)n3n2)cn1 [SGX-523] | 1.09 | 1.05 | 1.17 | 1.23 | 1.03 | 1.11 | 1.19 | 1.04 | 0.718 | 1.13 | 1.07 | 0.971 | 1.13 | 1.06 | 0.984 | 1.01 | 0.991 | 0.776 | 102 ± 1.5 | 96.42 ± 0.71 | 105 ± 2.4 | 102.4 ± 0.49 | 102.2 ± 0.92 | 97.9 ± 1.9 | 104 ± 1.6 | 94.8 ± 6.4 | 103 ± 2.1 | 98.3 ± 4.6 | 103.8 ± 0.28 | 97.5 ± 4.1 |
| CC1(C)CC(=O)c2c(C(F)(F)F)nn(-c3ccc(C(N)=O)c(N[C@H]4CC[C@H](O)CC4)c3)c2C1 [SNX-2112] | 0.771 | 0.292 | 0.334 | 0.0113 | 0.00964 | 0.00549 | 0.00248 | 0.00255 | 0.00394 | 0.829 | 0.471 | 0.381 | 0.19 | 0.232 | 0.0887 | 0.0644 | 0.0224 | 0.0194 | 112 ± 4 | 111 ± 1.2 | 84.4 ± 1.3 | 7.98 ± 0.57 | 6.9 ± 0.43 | 6.78 ± 0.53 | 60.2 ± 9.5 | 66.4 ± 8.2 | 45.4 ± 5.8 | 21.9 ± 0.44 | 18.9 ± 2.6 | 14.8 ± 0.6 |
| CO[C@H]1C[C@@H]2CC[C@@H](C)[C@@](O)(O2)C(=O)C(=O)N2CCCC[C@H]2C(=O)O[C@H]([C@H](C)C[C@@H]2CC[C@@H](OC(=O)C(C)(CO)CO)[C@H](OC)C2)CC(=O)[C@H](C)/C=C(\C)[C@@H](O)[C@@H](OC)C(=O)[C@H](C)C[C@H](C)/C=C/C=C/C=C/1C [Temsirolimus] | 0.901 | 0.874 | 0.846 | 0.894 | 0.91 | 0.816 | 0.629 | 0.415 | 0.379 | 0.696 | 0.68 | 0.714 | 0.666 | 0.524 | 0.422 | 0.263 | 0.274 | 0.171 | 84.1 ± 1.2 | 75.1 ± 3.1 | 78.7 ± 1.2 | 83.1 ± 3.1 | 76.9 ± 5 | 67.44 ± 0.43 | 40.82 ± 0.13 | 40.9 ± 3.7 | 36.1 ± 3.5 | 36.5 ± 3.5 | 41.1 ± 4.7 | 40.6 ± 4.3 |
| Cn1cncc1[C@@](N)(c1ccc(Cl)cc1)c1ccc2c(c1)c(-c1cccc(Cl)c1)cc(=O)n2C [Tipifarnib] | 0.938 | 0.909 | 0.836 | 0.961 | 0.974 | 0.798 | 0.525 | 0.25 | 0.0103 | 0.693 | 0.533 | 0.634 | 0.552 | 0.512 | 0.592 | 0.436 | 0.274 | 0.0644 | 95.09 ± 0.41 | 96 ± 1.6 | 98.8 ± 1.9 | 81.5 ± 3.5 | 75.86 ± 0.6 | 64.3 ± 0.85 | 99.6 ± 4.2 | 117 ± 2.7 | 93.9 ± 2.1 | 89.4 ± 1.5 | 76.4 ± 2.5 | 63.3 ± 1.7 |
| CC[C@@]1(O)C(=O)OCc2c1cc1n(c2=O)Cc2cc3c(CN(C)C)c(O)ccc3nc2-1 [Topotecan Hydrochloride] | 1.08 | 1.08 | 1.03 | 0.883 | 0.692 | 0.00466 | 0.00116 | 0.000564 | 0.0011 | 1.03 | 0.984 | 1.06 | 0.956 | 0.888 | 0.268 | 0.0393 | 0.00545 | 0.000822 | 106 ± 1.4 | 110.5 ± 0.33 | 102 ± 1.7 | 80.31 ± 0.015 | 26.9 ± 0.65 | 7.57 ± 0.098 | 105 ± 5.7 | 110 ± 4.5 | 103 ± 3.6 | 80.067 ± 0.0095 | 30.3 ± 2.4 | 12.7 ± 0.7 |
